Laboratory results: paper PMC6474902, “Examination of novel 4-aminoquinoline derivatives designed and synthesized by a hybrid pharmacophore approach to enhance their anticancer activities” (Scientific Reports, 2019)
Read-outs that look alike come from different tables or passages of the source.

Assays:
MCF7 = test: SRB antiproliferative/antigrowth assay; assay type: cell-based, human; conditions: for GI50: SRB, 48 h post-treatment, mean of triplicates of at least two experiments, read-out: GI50 MCF7
Protocol: (§1) The antigrowth effects of 4-piperazinylquinoline sulfonyl analogs on human breast tumor cells was initially evaluated using MDA-MB468 (a PTEN defective, EGFR positive breast adenocarcioma), MDA-MB231 (p53 and pRB mutated, triple-negative breast carcinoma), and MCF7 (p53+/−, invasive ductal breast carcinoma) cell lines. In addition, the cytotoxicity of all the compounds was also evaluated with the 184B5 and MCF10A non-cancer immortalized breast epithelial cell lines, to determine if these newly synthesized compounds have differential cytotoxic effects on cancer and non-cancer cells. The panel of three breast cancer cell lines with different genetic back ground and the well-studied two non-cancer immortalized breast cell lines would provide insights into the efficacy and toxicity of the test compounds in the different genetic background and at different stages of tumor development. The dose response of each cell line was established by determining the number of viable cells after 48 h of continuous drug treatment against seven different concentrations (100 µM to 0.0064 µM) of each compound. The reading of sulphorodamine B (SRB) staining is known to accurately reflect the level of total cellular macromolecules/cell growth/proliferation[6],[23]. […] The data for CQ and cisplatin were included as references. […] The differences in the GI50 values may be attributable to such factors as the nature of the sulfonyl group and the halogen substitution on the 7th position of the 4-piperazinylquinoline ring system, and the genetic and biochemical background of the cell lines.
(§2) Antiproliferative/antigrowth effects were determined by a SRB-based protocol[6],[23]. For a typical screening experiment, 5,000–10,000 cells were inoculated into 100 µL medium per well of a 96-well microtiter plate as described previously. Briefly, after the inoculation, the microtiter plate was incubated at 37 °C, 5% CO2, 95% air and 100% relative humidity for 24 h, prior to addition of experimental drugs. Some of the sample wells were fixed with 25 µL of 50% tricholoroacetic acid (TCA) as a control of the cell population for each cell line at the time of drug addition (Tz). An aliquot of the frozen stock was thawed and diluted to a desired final maximum test-concentration with complete medium. Two to ten-fold serial dilutions were made to provide a total of seven drug concentrations (and a control [C]). Following addition of drugs, the culture plate was incubated for additional 48 h. Cells were fixed in situ by slowly adding 25 µL of ice-cold 50% (w/v) TCA (final concentration, 10% TCA), and were then incubated for 60 min at 4 °C. The supernatant was discarded, and the plate was washed five times with tap water, followed by air-dry. 50 µL of SRB solution at 0.4% (w/v) in 1% acetic acid was added to each well, and the plate was incubated for >30 min at room temperature. Unbound SRB was removed by five washes with tap water, followed by air-drying. The cells “stained” with SRB were solubilized with 10 mM trizma base, and the absorbance was read on an automated plate reader at a wavelength of 515–564 nm. The relative growth rate (%) was calculated for each of the compound concentrations according to the following formula: (Ti−Tz)/(C−Tz)×100
(§3) In the formula, time zero (Tz), control growth (C), and OD for different concentration of tested compounds (Ti). The GI50 for each compound was obtained from a non-linear Sigmoidal dose-response (variable slope) curve which is fitted by GraphPad Prism v.4.03 software. Values were calculated for each of these parameters if the level of activity was reached. However, if the effect was not reached or was exceeded, the value for that parameter was expressed as greater or less than the maximum or minimum concentration tested.

MDA-MB231 = test: SRB antiproliferative/antigrowth assay; assay type: cell-based, human; conditions: for GI50: SRB, 48 h post-treatment, mean of triplicates of at least two experiments, read-out: GI50 MB231
Protocol: as §1, §2, §3

MDA-MB468 = test: SRB antiproliferative/antigrowth assay; assay type: cell-based, human; conditions: SRB, 48 h post-treatment, mean of triplicates of at least two experiments, read-out: GI50 MB468
Protocol: as §1, §2, §3

184B5 = test: SRB antiproliferative/antigrowth assay, non-cancer cells; assay type: cell-based, human; conditions: SRB, 48 h post-treatment, non-cancer breast epithelial cells, read-out: GI50 184B5
Protocol: as §1, §2, §3

MCF10A = test: as above; assay type: cell-based, human; conditions: SRB, 48 h post-treatment, non-cancer breast epithelial cells, read-out: GI50 MCF10A
Protocol: as §1, §2, §3

Compound | GI50 (MCF7) [µM] | GI50 (MDA-MB231) [µM] | GI50 (MDA-MB468) [µM] | GI50 (MCF7; Homo sapiens, MCF7, 48 h) [µM] | GI50 (MDA-MB231; Homo sapiens, MDA-MB-231, 48 h) [µM] | GI50 (MDA-MB468; Homo sapiens, MDA-MB-468, 48 h) [µM] | melting point [°C] | GI50 (184B5) [µM] | GI50 (MCF10A) [µM] | GI50 (184B5; Homo sapiens, 184B5, 48 h) [µM] | GI50 (MCF10A; Homo sapiens, MCF-10A, 48 h) [µM] | increase in antigrowth activity on MCF7 in comparison to methyl substituted compound 7 (MCF7) [fold] | increase in antigrowth activity on MDA-MB231 in comparison to methyl substituted compound 16 (MDA-MB231) [fold] | increase in potency on MDA-MB231 in comparison to methyl substituted compounds (25 and 34) (MDA-MB231) | more effective than cisplatin (MCF7) (MCF7; ratio of GI50 values) [fold] | more effective than cisplatin (MDA-MB231) (MDA-MB231; ratio of GI50 values) [fold]
7-Chloro-4-(4-(biphenylsulfonyl)piperazin-1-yl)quinoline [Compound 9] | 9.2 ± 0.2 | 26.2 ± 0.6 | 18.2 ± 0.5 |  |  |  |  | 16.4 ± 0.2 | 12.4 ± 0.2 |  |  |  |  |  |  | 
CS(=O)(=O)N1CCN(c2ccnc3cc(Cl)ccc23)CC1 [Compound 7, 7-Chloro-4-(4-(methylsulfonyl)piperazin-1-yl)quinoline] |  |  |  | 22.9 ± 0.6 | 42.7 ± 0.8 | 35.1 ± 0.8 |  |  |  | 11.5 ± 0.2 | 15.3 ± 0.1 |  |  |  |  | 
O=S(=O)(c1ccc(Cl)cc1)N1CCN(c2ccnc3cc(Cl)ccc23)CC1 [Compound 10, 7-Chloro-4-(4-(4-chlorophenylsulfonyl)piperazin-1-yl)quinoline] |  |  |  | 7.6 ± 0.1 | 25.5 ± 0.7 | 16 ± 0.6 |  |  |  | 12.1 ± 0.2 | 8.7 ± 0.1 | 3 |  |  |  | 
O=S(=O)(c1ccc(Cl)cc1Cl)N1CCN(c2ccnc3cc(Cl)ccc23)CC1 [Compound 11, 7-Chloro-4-(4-(2,4-dichlorophenylsulfonyl)piperazin-1-yl)quinoline] |  |  |  | 13.5 ± 0.2 | 40.6 ± 0.8 | 21.6 ± 0.6 | 145 to 147 |  |  | 12.4 ± 0.1 | 8.9 ± 0.2 |  |  |  |  | 
O=[N+]([O-])c1cccc(S(=O)(=O)N2CCN(c3ccnc4cc(Cl)ccc34)CC2)c1 [Compound 12, 7-Chloro-4-(4-(3-nitrophenylsulfonyl)piperazin-1-yl)quinoline] |  |  |  | 14.8 ± 0.2 | 34.7 ± 0.7 | 25.1 ± 0.7 | 138 to 140 |  |  | 13.3 ± 0.2 | 15.5 ± 0.2 |  |  |  |  | 
COC(=O)c1sccc1S(=O)(=O)N1CCN(c2ccnc3cc(Cl)ccc23)CC1 [Compound 15, Methyl 3-(4-(7-chloroquinolin-4-yl)piperazin-1-ylsulfonyl)thiophene-2-carboxylate] |  |  |  | 22.4 ± 0.2 | 40.4 ± 0.8 | 30.2 ± 0.7 | 117 to 119 |  |  | 15.2 ± 0.2 | 14.6 ± 0.1 |  |  |  |  | 
Cc1ccc(S(=O)(=O)N2CCN(c3ccnc4cc(C(F)(F)F)ccc34)CC2)cc1 [Compound 17, 4-[4-(Toluene-4-sulfonyl)-piperazin-1-yl]-7-trifluoromethyl-quinoline] |  |  |  | 20.8 ± 0.2 | 42.7 ± 0.8 | 36.5 ± 0.8 | 126 to 128 |  |  | 12.9 ± 0.1 | 10.5 ± 0.1 |  |  |  |  | 
O=S(=O)(c1ccc(-c2ccccc2)cc1)N1CCN(c2ccnc3cc(C(F)(F)F)ccc23)CC1 [Compound 18, 4-[4-(Biphenyl-4-sulfonyl)-piperazin-1-yl]-7-trifluoromethyl-quinoline] |  |  |  | 14.8 ± 0.2 | 27.2 ± 0.6 | 20.5 ± 0.5 | 148 to 150 |  |  | 19.1 ± 0.2 | 15.5 ± 0.4 |  |  |  |  | 
O=S(=O)(c1ccc(Cl)cc1)N1CCN(c2ccnc3cc(C(F)(F)F)ccc23)CC1 [Compound 19, 4-[4-(4-Chloro-benzenesulfonyl)-piperazin-1-yl]-7-trifluoromethyl-quinoline] |  |  |  | 27.4 ± 0.3 | 41.4 ± 0.8 | 34.9 ± 0.8 | 144 to 146 |  |  | 21.8 ± 0.3 | 13.6 ± 0.2 |  |  |  |  | 

Continued, in another order:

GI50 (MCF7) [µM] | GI50 (MDA-MB231) [µM] | GI50 (MDA-MB468) [µM] | GI50 (MCF7; Homo sapiens, MCF7, 48 h) [µM] | GI50 (MDA-MB231; Homo sapiens, MDA-MB-231, 48 h) [µM] | GI50 (MDA-MB468; Homo sapiens, MDA-MB-468, 48 h) [µM] | melting point [°C] | Compound | GI50 (184B5) [µM] | GI50 (MCF10A) [µM] | GI50 (184B5; Homo sapiens, 184B5, 48 h) [µM] | GI50 (MCF10A; Homo sapiens, MCF-10A, 48 h) [µM] | increase in antigrowth activity on MCF7 in comparison to methyl substituted compound 7 (MCF7) [fold] | increase in antigrowth activity on MDA-MB231 in comparison to methyl substituted compound 16 (MDA-MB231) [fold] | increase in potency on MDA-MB231 in comparison to methyl substituted compounds (25 and 34) (MDA-MB231) | more effective than cisplatin (MCF7) (MCF7; ratio of GI50 values) [fold] | more effective than cisplatin (MDA-MB231) (MDA-MB231; ratio of GI50 values) [fold]
 |  |  | 16.7 ± 0.2 | 20.3 ± 0.5 | 18.6 ± 0.5 | 137 to 139 | O=S(=O)(c1ccc(Cl)cc1Cl)N1CCN(c2ccnc3cc(C(F)(F)F)ccc23)CC1 [Compound 20, 4-[4-(2,4-Dichloro-benzenesulfonyl)-piperazin-1-yl]-7-trifluoromethyl-quinoline] |  |  | 20.4 ± 0.2 | 15.6 ± 0.2 |  | 2 |  |  | 
 |  |  | 12.9 ± 0.2 | 22.1 ± 0.6 | 19.1 ± 0.6 | 98 to 100 | CN(C)c1cccc2c(S(=O)(=O)N3CCN(c4ccnc5cc(C(F)(F)F)ccc45)CC3)cccc12 [Compound 23, Dimethyl-{5-[4-(7-trifluoromethyl-quinolin-4-yl)-piperazine-1-sulfonyl]-naphthalen-1-yl}-amine] |  |  | 12 ± 0.2 | 15.4 ± 0.5 |  |  |  |  | 
 |  |  | 16 ± 0.2 | 34.7 ± 0.7 | 23.9 ± 0.6 | 117 to 119 | COC(=O)c1sccc1S(=O)(=O)N1CCN(c2ccnc3cc(C(F)(F)F)ccc23)CC1 [Compound 24, 3-[4-(7-Trifluoromethyl-quinolin-4-yl)-piperazine-1-sulfonyl]-thiophene-2-carboxylic acid methyl ester] |  |  | 15.9 ± 0.1 | 15.8 ± 0.1 |  |  |  |  | 
 |  |  | 23.1 ± 0.9 | 40.9 ± 1.5 | 28.6 ± 1 |  | CS(=O)(=O)NCCCNc1ccnc2cc(Cl)ccc12 [Compound 25, N-[3-(7-Chloro-quinolin-4-ylamino)-propyl]-methanesulfonamide] |  |  | 23.3 ± 0.9 | 39.1 ± 1.2 |  |  |  |  | 
 |  |  | 2.5 ± 0.2 | 4.6 ± 0.4 | 4.5 ± 0.4 | 116 to 118 | O=S(=O)(NCCCNc1ccnc2cc(Cl)ccc12)c1ccc(-c2ccccc2)cc1 [Compound 27, Biphenyl-4-sulfonic acid [3-(7-chloro-quinolin-4-ylamino)-propyl]-amide] |  |  | 2.4 ± 0.1 | 2.6 ± 0.1 |  |  |  |  | 
 |  |  | 4.3 ± 0.3 | 11.8 ± 0.9 | 8.3 ± 0.7 |  | O=S(=O)(NCCCNc1ccnc2cc(Cl)ccc12)c1ccc(Cl)cc1 [Compound 28, 4-Chloro-N-(3-(7-chloroquinolin-4-ylamino)propyl)benzenesulfonamide] |  |  | 6.4 ± 0.3 | 9.7 ± 0.1 |  |  | 3.5–4.4 fold |  | 
 |  |  | 4 ± 0.2 | 6.8 ± 0.6 | 3.6 ± 0.1 | 145 to 147 | O=S(=O)(NCCCNc1ccnc2cc(Cl)ccc12)c1ccc(Cl)cc1Cl [Compound 29, 2,4-Dichloro-N-[3-(7-chloro-quinolin-4-ylamino)-propyl]-benzenesulfonamide] |  |  | 3.6 ± 0.2 | 6.8 ± 0.4 |  |  |  |  | 
 |  |  | 8.6 ± 0.4 | 20.4 ± 1.2 | 9.2 ± 0.7 |  | O=[N+]([O-])c1cccc(S(=O)(=O)NCCCNc2ccnc3cc(Cl)ccc23)c1 [Compound 30, N-(3-(7-chloroquinolin-4-ylamino)propyl)-3-nitrobenzenesulfonamide] |  |  | 15.8 ± 0.9 | 31.1 ± 1.1 |  |  |  |  | 
4.2 ± 0.2 | 6.1 ± 0.5 | 4.1 ± 0.3 | 4.22 | 5.97 | 4.18 |  | COC(=O)c1sccc1S(=O)(=O)NCCCNc1ccnc2cc(Cl)ccc12 [Compound 33, 3-[3-(7-Chloro-quinolin-4-ylamino)-propylsulfamoyl]-thiophene-2-carboxylic acid methyl ester] | 15.7 ± 0.4 | 16.5 ± 0.8 | 15.7 | 16.5 |  |  |  | 6.1 | 4.0
